Solids formation and solubility in water data for one compound are collected here from patent US10662151B1, “Process for preparing DTEA HCl” (AMSA, Inc., priority 2017, dated 2020).

A short description of this series: Water solubility of DTEA HCl (pure and crude) at different temperatures. The series is classed as physicochemical. To be noted: FIG. 2. The source says:
FIG. 2 graphically represents the water solubility of pure DTEA HCl.

SMILES strings stand for the structures.

Regarding `CCCCCCCCCCSCCN.Cl` [DTEA HCl, n-decylthioethylamine HCl], under “15 wt % solution in water”, the solids formation result was “forms solids well above RT”. Besides, the solubility in water entry is given as “essentially insoluble” (at 32° F.); “less than 1 wt %” (at 56° F., no LTS); 11 wt % (at 67° F., no LTS).
